Results on twelve compounds are retold here after PubChem BioAssay (NCI).

Values joined by “and” are separate entries in the source; they are usually repeats but may differ in a detail not shown here. Equal entries are not always repeated.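 Each compound was tested at five concentrations against cells in 96-well plates for 48 hours. GI50 is the concentration that inhibits growth by half. TGI denotes the concentration required for complete inhibition of growth.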 Bounds are passed on as bounds.

Among the test systems are A498 renal; A549 NSCLC; ACHN renal; COLO 205 colon; EKVX NSCLC; KM12 colon; OVCAR-5 ovarian; SF-539 CNS; SN12C renal; UACC-62 melanoma.
What all share (test): growth of human tumour cells (NCI), 48 h

Take `COc1ccc2c(c1)C(=O)c1c-2c(OCCN(C)C)nc2cc(OC)c(OC)cc12`: the GI50 is 13.2 µM in the test on A498 renal; 4.2 µM in the test on A549 NSCLC; 5.21 µM with ACHN renal; 11.5 µM with COLO 205 colon; 22.6 µM in the test with EKVX NSCLC; 0.762 µM in the test on KM12 colon. In addition, the GI50 with OVCAR-5 ovarian is 23.7 µM; in the test on SF-539 CNS, 10.6 µM; in the test on SN12C renal it was 2.72 µM; in the test with UACC-62 melanoma it was 51.5 µM. Further, the TGI in the test on A498 renal is 99.1 µM; with A549 NSCLC it was 21.5 µM; with ACHN renal it was 19.3 µM; in the test on COLO 205 colon, over 100 µM; in the test with EKVX NSCLC it was over 100 µM; with KM12 colon, 13.4 µM. The TGI with OVCAR-5 ovarian was 55.9 µM; in the test with SF-539 CNS, 24.9 µM; in the test on SN12C renal, over 100 µM; with UACC-62 melanoma, over 100 µM.

On to `COc1cccc(/C=N\NC(=O)C(C)SC(C)C(=O)N/N=C/c2cccc(OC)c2)c1` (configuration not stated), for which the TGI with A498 renal is 27 µM; in the test on A549 NSCLC, 20.6 µM; in the test with ACHN renal, 35.6 µM; in the test with COLO 205 colon it was over 63.9 µM; in the test with EKVX NSCLC, 60.2 µM; in the test on KM12 colon it was over 67.3 µM. Also, the TGI with OVCAR-5 ovarian is over 100 µM; in the test on SF-539 CNS, over 100 µM; in the test on SN12C renal, 42.8 µM; with UACC-62 melanoma, 97.4 µM.

For the compound `Cc1cc(S(N)(=O)=O)c(S/C(=N\NS(=O)(=O)c2ccccc2)c2ccc(Cl)cc2)cc1Cl`, the GI50 is 43 µM with A498 renal; over 100 µM with A549 NSCLC; over 100 µM in the test on ACHN renal; 97.8 µM in the test on COLO 205 colon; over 100 µM in the test with EKVX NSCLC; over 100 µM in the test with KM12 colon. Besides, the GI50 in the test on OVCAR-5 ovarian is over 100 µM; in the test on SF-539 CNS it was over 100 µM; with SN12C renal it was 46.5 µM; with UACC-62 melanoma it was over 100 µM. For the same compound, the TGI in the test with A498 renal, in the test with A549 NSCLC, in the test with ACHN renal, in the test on COLO 205 colon, in the test on EKVX NSCLC and with KM12 colon was over 100 µM throughout. Also, the TGI with OVCAR-5 ovarian, with SF-539 CNS, with SN12C renal and in the test with UACC-62 melanoma was over 100 µM each time.

For `CCOC(=O)c1c(NC(=O)c2ccc(Cl)cc2)sc2c(CN(C)C)c(O)ccc12`, the GI50 in the test with A498 renal is 6.09 µM; in the test with A549 NSCLC it was 8.07 µM; with ACHN renal it was 4.28 µM; in the test on COLO 205 colon it was 1.87 µM; in the test with EKVX NSCLC, 10.1 µM; with KM12 colon, 4.82 µM. Besides, the GI50 in the test with OVCAR-5 ovarian is 9.1 µM; in the test on SF-539 CNS, 5.2 µM; with SN12C renal it was 14.6 µM; in the test with UACC-62 melanoma it was 3.41 µM. In addition, the TGI with A498 renal is 19.9 µM; in the test on A549 NSCLC it was 36.2 µM; in the test with ACHN renal it was 18.3 µM; in the test with COLO 205 colon, 4.1 µM; with EKVX NSCLC it was 31.8 µM; in the test on KM12 colon, over 100 µM. For the same compound, the TGI in the test on OVCAR-5 ovarian is 57.2 µM; with SF-539 CNS, 18.4 µM; in the test on SN12C renal it was over 100 µM; in the test on UACC-62 melanoma, 14.8 µM.

Regarding `CCN(c1ccccc1)[C@H]1C(=O)N(c2ccc([N+](=O)[O-])cc2)[C@H]1c1ccc(OC)cc1`, the TGI in the test on A498 renal, in the test on A549 NSCLC, with ACHN renal, in the test on COLO 205 colon, with EKVX NSCLC and with KM12 colon was over 100 µM throughout. For the same compound, the TGI with OVCAR-5 ovarian, with SF-539 CNS, in the test on SN12C renal and in the test with UACC-62 melanoma was over 100 µM throughout.

Take `COc1cc2cc(Oc3cccc(NC(=O)Nc4cc(C(F)(F)F)cc(C(F)(F)F)c4)c3)c(C)nc2cc1OC`: the GI50 in the test on A498 renal was 1.6 µM; in the test with A549 NSCLC it was 1.42 µM; in the test with ACHN renal it was 0.39 µM; with COLO 205 colon, 1.79 µM; in the test with EKVX NSCLC, 1 µM; with KM12 colon, 0.918 µM. In addition, the GI50 with OVCAR-5 ovarian was 1.93 µM; in the test on SF-539 CNS it was 1.45 µM; in the test on SN12C renal, 0.591 µM; in the test with UACC-62 melanoma, 0.561 µM. The TGI in the test with A498 renal came out at 4.29 µM; in the test with A549 NSCLC, 4.75 µM; in the test on ACHN renal, 1.69 µM; in the test with COLO 205 colon, 3.58 µM; in the test with EKVX NSCLC it was 2.98 µM; with KM12 colon, 2.46 µM. Moreover, the TGI in the test with OVCAR-5 ovarian stood at 4.14 µM; with SF-539 CNS, 3.21 µM; in the test on SN12C renal, 2.09 µM; in the test on UACC-62 melanoma, 2.09 µM.

In the case of `O=[N+]([O-])/C=C/c1ccc(Cl)cc1[N+](=O)[O-]`, the GI50 was 14.5 µM in the test on A498 renal; 6.72 µM with A549 NSCLC; 1.95 µM with ACHN renal; 1.81 µM with COLO 205 colon; 13.1 µM in the test on EKVX NSCLC; 3.09 µM with KM12 colon. Also, the GI50 is 4.49 µM in the test with OVCAR-5 ovarian, 2.65 µM with SF-539 CNS, 3.08 µM in the test on SN12C renal and 1.55 µM with UACC-62 melanoma. For the same compound, the TGI in the test on A498 renal is 27.8 µM; in the test on A549 NSCLC, 30.3 µM; in the test on ACHN renal, 3.79 µM; in the test on COLO 205 colon, 3.47 µM; in the test on EKVX NSCLC, 35.1 µM; with KM12 colon, over 100 µM. Further, the TGI in the test with OVCAR-5 ovarian was found to be 14.9 µM; in the test with SF-539 CNS it was 5.91 µM; in the test on SN12C renal, 20.9 µM; in the test on UACC-62 melanoma it was 3.64 µM.

In the case of `Clc1ccc(CN2CCCN(Cc3ccc(Cl)cc3)C2c2cc3ccccc3c3ccccc23)cc1`, the TGI in the test on A498 renal was 56.5 µM; in the test with A549 NSCLC, over 100 µM; in the test with ACHN renal it was over 100 µM; with COLO 205 colon, 40.3 µM; in the test with EKVX NSCLC it was over 100 µM; in the test on KM12 colon, over 100 µM. Moreover, the TGI in the test with OVCAR-5 ovarian is over 100 µM; with SF-539 CNS it was over 100 µM; in the test on SN12C renal, over 100 µM; in the test on UACC-62 melanoma it was 36.7 µM.

In the case of `NCCCN=c1ccc2c3c1c(O)c1c(O)ccc(=O)c1c3[nH]n2CCNCCO`, the TGI in the test with A498 renal was 7.19 µM and 8.57 µM; with A549 NSCLC, 12.3 µM and 21.8 µM; in the test on ACHN renal it was 4.52 µM; in the test on COLO 205 colon, 5.91 µM and 6.96 µM; with EKVX NSCLC, 17.9 µM and 42 µM; with KM12 colon, 11.6 µM and 39 µM. In addition, the TGI in the test on OVCAR-5 ovarian was 17.4 µM and 17.2 µM; with SF-539 CNS, 5.31 µM and 7.66 µM; in the test with SN12C renal it was 6.15 µM and 10.2 µM; in the test on UACC-62 melanoma, 5.66 µM and 6.48 µM. The GI50 is 0.571 µM and 0.304 µM with A549 NSCLC; 1.61 µM with COLO 205 colon; 6.08 µM and 4.62 µM in the test with EKVX NSCLC; 1.88 µM in the test on KM12 colon; 0.854 µM and 1.53 µM in the test on SF-539 CNS; 0.413 µM and 0.391 µM in the test on SN12C renal. Also, the GI50 in the test on UACC-62 melanoma is 0.792 µM.

Turning to `COc1ccc(/C=C/C(=O)c2cc3c(N)c(C(=O)Nc4ccc(OC)cc4)sc3nc2C)cc1`, the GI50 in the test with A498 renal is 0.108 µM; in the test on A549 NSCLC it was 0.231 µM; with ACHN renal, 0.397 µM; with COLO 205 colon it was 0.158 µM; in the test on EKVX NSCLC it was 1.3 µM; in the test on KM12 colon, 0.203 µM. Besides, the GI50 in the test on OVCAR-5 ovarian was 0.299 µM; with SF-539 CNS, 0.327 µM; in the test on SN12C renal it was 0.284 µM; in the test with UACC-62 melanoma, 0.161 µM. Besides, the TGI with A498 renal was 0.41 µM; in the test on A549 NSCLC, over 50 µM; in the test with ACHN renal it was over 50 µM; with COLO 205 colon it was 0.609 µM; with EKVX NSCLC, over 50 µM; with KM12 colon it was 20.5 µM. Further, the TGI with OVCAR-5 ovarian is over 50 µM; with SF-539 CNS it was 1.54 µM; with SN12C renal it was over 50 µM; in the test with UACC-62 melanoma, over 50 µM.

With `NC(=O)/C(=C/n1cnc(-c2cc(C(F)(F)F)cc(C(F)(F)F)c2)n1)c1cncnc1`, the GI50 was 0.0848 µM with A498 renal; 0.552 µM in the test on A549 NSCLC; 0.386 µM in the test with ACHN renal; 0.124 µM in the test with COLO 205 colon; 0.566 µM with EKVX NSCLC; 1.19 µM in the test with KM12 colon. Besides, the GI50 in the test with OVCAR-5 ovarian was 0.447 µM; in the test on SF-539 CNS it was 0.0806 µM; in the test on SN12C renal, 0.814 µM; in the test with UACC-62 melanoma, 0.63 µM. The TGI with A498 renal is 1.26 µM; in the test on A549 NSCLC, over 47.1 µM; in the test on ACHN renal, 11.4 µM; with COLO 205 colon, 11.5 µM; in the test on EKVX NSCLC, 20.8 µM; with KM12 colon, 13.4 µM. For the same compound, the TGI in the test on OVCAR-5 ovarian came to 16.2 µM; in the test on SF-539 CNS, 1.45 µM; in the test on SN12C renal, 12.7 µM; in the test with UACC-62 melanoma, 5.37 µM.

Turning to `N#[N+]c1ccc(Nc2ccccc2)cc1`, the GI50 in the test on A498 renal was over 50 µg/mL; with A549 NSCLC it was over 50 µg/mL; in the test on ACHN renal it was over 50 µg/mL; in the test with COLO 205 colon it was over 50 µg/mL; in the test on EKVX NSCLC, over 50 µg/mL; in the test with KM12 colon it was 3.11 µg/mL. The GI50 in the test with OVCAR-5 ovarian, with SF-539 CNS, in the test with SN12C renal and in the test on UACC-62 melanoma was over 50 µg/mL in each case. The TGI in the test with A498 renal, with A549 NSCLC, in the test with ACHN renal, with COLO 205 colon, in the test with EKVX NSCLC and with KM12 colon was over 50 µg/mL throughout. Moreover, the TGI in the test with OVCAR-5 ovarian, in the test with SF-539 CNS, with SN12C renal and with UACC-62 melanoma was over 50 µg/mL throughout.
